The text below walks through data of patent US7759350B2, “Pyrimidine carboxamides” (Orchid Research Laboratories Ltd., priority 2005, dated 2010).

One assay relates to NCI-H460. As to the kind of experiment: Anti-cancer screen (MTT), NCI-H460. The format is cell-based. The protocol:
(§1) Experimental drugs are screened for anti-cancer activity in three cell lines for their GI50, TGI and LC50 values (using five concentrations for each compound). The cell lines are maintained in DMEM containing 10% fetal bovine serum. 96 well microtiter plates are inoculated with cells in 100 μL for 24 h at 37° C., 5% CO2, 95% air and 100% relative humidity. 5000 HCT116 cells/well, 5000 NCIH460 cells/well, 10000 U251 cells/well and 5000 MDAMB231 cells/well are plated. A separate plate with these cell lines is also inoculated to determine cell viability before the addition of the compounds (T0).
Following 24 hours incubation, experimental drugs are added to the 96 well plates. […] Compounds are dissolved in dimethylsulfoxide (DMSO) to make 20 mM stock solutions on the day of drug addition and frozen at −20° C. […] Standard drugs whose anti-cancer activity has been well documented and which are regularly used are doxorubicin and SAHA.
(§2) Cells are incubated with compounds for 48 hours followed by the addition of 10 μL 3-(4,5-Dimethyl-2-thiazolyl)-2,5-diphenyl-2H-tetrazolium (MTT) solution per well and a subsequent incubation at 37° C., 5% CO2, 95% air and 100% relative humidity, protected from light. After 4 hours, well contents are aspirated carefully followed by addition of 150 μL DMSO per well. Plates are agitated to ensure solution of the formazan crystals in dimethylsulphoxide and absorbance read at 570 nm.
Percent growth is calculated for each compound's concentration relative to the control and zero measurement wells (To; viability right before compound addition). If a test well's O.D. value is greater than the To measurement for that cell line % Growth=(test−zero)/(control−zero)×100
If a test well's O.D. value is lower than the T0 measurement for that cell line, […]

A further assay relates to MDAMB-231. As to the kind of experiment: Anti-cancer screen (MTT), MDAMB-231. Format: cell-based. Conditions: Homo sapiens, MDA-MB-231, 48 hours. How it is done:
as §1
Following 24 hours incubation, experimental drugs are added to the 96 well plates. […]
Cells are incubated with compounds for 48 hours followed by the addition of 10 μL 3-(4,5-Dimethyl-2-thiazolyl)-2,5-diphenyl-2H-tetrazolium (MTT) solution per well and a subsequent incubation at 37° C., 5% CO2, 95% air and 100% relative humidity, protected from light. […] Plates are agitated to ensure solution of the formazan crystals in dimethylsulphoxide and absorbance read at 570 nm.
(§3) Percent growth is calculated for each compound's concentration relative to the control and zero measurement wells (To; viability right before compound addition). […]

In the next assay the test system is IL-1β. In words: In vitro measurement of IL-1β in human PBMC. The format is cell-based. The conditions noted are these: Conc. 0.1 μM, LPS. The protocol: (§4) In vitro Measurement of Interleukin-6 (IL-6) & Interleukin-1β (IL1β)
(§5) This assay determines the effect of test compounds on the production of IL-6 and IL1β in human PBMC (Physiol. Res. 52: 593-598, 2003). Compounds were tested for their ability to inhibit the activity of IL-6 and IL1β in human PBMC. PBMC were isolated from blood using BD Vacutainer CPT™ Cell preparation tube (BD Bio Science) and suspended in RPMI medium. The test compounds were preincubated with PBMC (0.5 million/incubation well) for 15 minutes at 37° C. and then stimulated with Lipopolysaccharide (Escherichia coli: B4; 1 μg/ml) for 18 hours at 37° C. in 5% CO2. The levels of IL-6 and IL1β in cell culture medium were estimated using enzyme linked Immunosorbent assay performed in a 96 well format as per the procedure of the manufacturer (R&D Systems, Inc. 614 McKinley Place Nebr., Minneapolis, Minn. 55413, USA).

Assay [1] concerns Carrageenan induced paw edema in rat. As to the kind of experiment: Carrageenan induced paw edema test in rat. The format is in vivo. The conditions noted are these: 5 mg/kg oral; male wistar rats; 3 hours after carrageenan. How it is done:
Carrageenan Induced Paw Edema Test in Rat
The carrageenan paw edema test was performed as described by Winter et al (Proc. Soc. Exp. Biol. Med, 111, 544, 1962). Male wistar rats were selected with body weights equivalent within each group. The rats were fasted for eighteen hours with free access to water. The rats were dosed orally with the test compound suspended in vehicle containing 0.25% carboxymethylcellulose and 0.5% Tween 80. The control rats were administered with vehicle alone. After an hour, the rats were injected with 0.1 ml of 1% Carrageenan solution in 0.9% saline into the sub-plantar surface of the right hind paw. Paw volume was measured using digital plethysmograph before and after 3 hours of carrageenan injection. The average of foot swelling in drug treated animals was compared with that of control animals. Anti-inflammatory activity was expressed as the percentage inhibition of edema compared with control group [Arzneim-Forsch/Drug Res., 43 (I), 1,44-50,1993; Otterness and Bliven, Laboratory Models for Testing NSAIDs, In Non-Steroidal Anti-Inflammatory Drugs, (J. Lombardino, ed. 1985)].

For a further assay, the system named is SF-268. In words: Anti-cancer screen (MTT), SF-268. The format is cell-based. How it is done:
[The source words this procedure for another cell line and reports this cell line under the same test.] as §1
(§6) Following 24 hours incubation, experimental drugs are added to the 96 well plates. Each plate contains one of the above cell lines and the following in triplicate: five different concentrations (0.01, 0.1, 1, 10 and 100 μM) of four different compounds, appropriate dilutions of a cytotoxic standard and control (untreated) wells. Compounds are dissolved in dimethylsulfoxide (DMSO) to make 20 mM stock solutions on the day of drug addition and frozen at −20° C. Serial dilutions of these 20 mM stock solutions are made in complete growth medium such that 100 μL of these drug solutions in medium, of final concentrations equaling 0.01, 0.1, 1, 10 and 100 μM can be added to the cells in triplicate. Standard drugs whose anti-cancer activity has been well documented and which are regularly used are doxorubicin and SAHA.
as §2, §3

The subject of a further assay is IL-6. As to the kind of experiment: In vitro measurement of IL-6 in human PBMC. Format: cell-based. The conditions noted are these: Conc. 0.1 μM, LPS. How it is done:
as §4, §5

The subject of the next assay is MCF-7. In words: Anti-cancer screen (MTT), MCF-7. Format: cell-based. How it is done:
[The source words this procedure for another cell line and reports this cell line under the same test.] as §1, §6, §2, §3

For a further assay, the target named is T1, COX-2 (Homo sapiens, UniProt P35354).
T1 construct: Fresh blood was collected in tubes containing sodium heparin by vein puncture from healthy male volunteers; endogenous in cells; host or cells: human whole blood from healthy male volunteers, stimulated with LPS
T1 sequence (P35354 18-604): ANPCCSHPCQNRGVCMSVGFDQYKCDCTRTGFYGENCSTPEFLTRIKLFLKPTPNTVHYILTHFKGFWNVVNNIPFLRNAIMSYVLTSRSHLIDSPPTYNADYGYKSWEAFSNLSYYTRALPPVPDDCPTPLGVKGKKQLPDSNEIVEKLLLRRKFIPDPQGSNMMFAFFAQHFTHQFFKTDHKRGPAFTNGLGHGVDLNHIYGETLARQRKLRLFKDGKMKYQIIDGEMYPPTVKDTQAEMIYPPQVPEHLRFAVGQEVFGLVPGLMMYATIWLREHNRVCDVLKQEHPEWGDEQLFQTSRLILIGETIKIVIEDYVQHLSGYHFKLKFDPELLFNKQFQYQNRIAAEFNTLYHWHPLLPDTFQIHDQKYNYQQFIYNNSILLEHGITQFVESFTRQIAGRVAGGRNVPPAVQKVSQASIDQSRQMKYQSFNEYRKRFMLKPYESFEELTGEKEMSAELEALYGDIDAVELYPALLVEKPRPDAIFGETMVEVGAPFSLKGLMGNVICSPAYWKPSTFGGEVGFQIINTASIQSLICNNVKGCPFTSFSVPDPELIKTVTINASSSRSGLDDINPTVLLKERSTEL
In words: Human whole blood assay, COX-2 inhibition (PGE2 after LPS). Format: cell-based. The conditions noted are these: LPS stimulated. The protocol:
Human whole blood provides a protein and cell rich milieu appropriate for the study of biochemical efficacy of anti-inflammatory compounds such as selective COX-2 inhibitors. […] This is correlating with the observation that COX-2 inhibitors have no effect on prostaglandin E2 (PGE2) production in normal blood. These inhibitors were active only after incubation of human blood with lipopolysaccharide (LPS), which induces COX-2 production in the blood.
Fresh blood was collected in tubes containing sodium heparin by vein puncture from healthy male volunteers. […] Then test compounds (at various concentrations) or vehicle were added to blood. After that blood was stimulated with LPS B: 4 (10 μg/ml) and incubated for another 18 hours at 37° C. water bath. After which the blood was centrifuged, plasma was separated and stored at −80° C. (J. Pharmacol. Exp. Ther, 271, 1705, 1994; Proc. Natl. Acad. Sci. USA., 96, 7563, 1999). The plasma was assayed for PGE2 using Cayman ELISA kit as per the procedure outlined by the manufacturer (Cayman Chemicals, Ann Arbor, USA).

Another assay has as its system TNF-α. As to the kind of experiment: In vitro measurement of TNF-α in human PBMC. Conditions: at 0.1 μM, LPS. Format: cell-based. How it is done:
In Vitro Measurement of Tumor Necrosis Factor Alpha (TNF-α)
This assay determines the effect of test compounds on the production of TNF-α in human Peripheral Blood Mononuclear Cells (PBMC). Compounds were tested for their ability to inhibit the activity of TNF-α in human PBMC. PBMC were isolated from blood (from healthy volunteers) using BD Vacutainer CPT™ (Cell preparation tube, BD Bio Science) and suspended in RPMI medium (Physiol. Res. 52; 593-598, 2003). The test compounds were pre-incubated with PBMC (0.5 million/incubation well) for 15 minutes at 37° C. and then stimulated with Lipopolysaccharide (Escherichia coli: B4; 1 μg/ml) for 18 hours at 37° C. in 5% CO2. The levels of TNF-α in the cell culture medium were estimated using enzyme linked Immunosorbent assay performed in a 96 well format as per the procedure of the manufacturer (R&D Systems, Inc. 614 McKinley Place Nebr., Minneapolis, Minn. 55413, USA).

For the compound `CNc1nc(-c2ccncc2)nc(SC)c1C(=O)Nc1ccc(C)c(C)c1` [Example 25, N-(3,4-Dimethylphenyl)-4-(methylamino)-6-(methylthio)-2-pyridin-4-ylpyrimidine-5-carboxamide], the GI50 was determined as 5.5 µM in the assay with NCI-H460 (Homo sapiens, NCI-H460, 48 hours, MTT) and 0.1 µM in the assay with MDAMB-231.

For the compound `CNc1nc(-c2ccc(SC)cc2)nc(SC)c1C(=O)Nc1ccc(C)cc1` [Example 5, 4-(Methylamino)-N-(4-methylphenyl)-6-(methylthio)-2-[4-(methylthio)phenyl]pyrimidine-5-carboxamide], in the assay on NCI-H460 (Conc. 50 μM), the “Percentage growth Lung NCI-H460” value is reported as 48%. The “IL-1β Inhibition (%)” value in the assay on IL-1β is “Not active”. For the same compound, the “Inhibition of edema (%) at 5 mg/kg” value in assay [1] is reported as 53.07%. The “Percentage growth CNS SF-268” value in the assay with SF-268 (Conc. 50 μM) turned out to be 106%. For the same compound, at 0.1 µM the inhibition in the assay with IL-6 was 14.9%. Also, the “Percentage growth Breast MCF-7” value with MCF-7 (Conc. 50 μM) is 160%. This compound returned an inhibition at 0.25 µM at COX-2 (Conc. 0.25 μM) of 36.8%.

`CNc1nc(-c2ccc(SC)cc2)nc(SC)c1C(=O)Nc1ccc(C)c(C)c1` [Example 9, N-(3,4-Dimethylphenyl)-4-(methylamino)-6-(methylthio)-2-[4-(methylthio)phenyl]pyrimidine-5-carboxamide]: the “Percentage growth Lung NCI-H460” value in the assay on NCI-H460 (Conc. 100 μM) is on record as 0%. The “Percentage growth CNS SF-268” value in the assay on SF-268 (Conc. 100 μM) is 5%. Further, in the assay with MCF-7 (Conc. 100 μM), the “Percentage growth Breast MCF-7” value came to 6%. This compound also gave an inhibition at 10 µM on COX-2 (Conc. 10 μM) of 29.2%.

On to `CCc1ccc(NC(=O)c2c(NC)nc(-c3ccc(SC)cc3)nc2SC)cc1` [Example 8, N-(4-Ethylphenyl)-4-(methylamino)-6-(methylthio)-2-[4-(methylthio)phenyl]pyrimidine-5-carboxamide], for which, in the assay on NCI-H460 (Conc. 100 μM), the “Percentage growth Lung NCI-H460” value was found to be 0%. The inhibition at 0.1 µM in the assay on TNF-α was 27.8%. Further, the “Percentage growth CNS SF-268” value in the assay on SF-268 (Conc. 100 μM) worked out at 1%. In addition, the “Percentage growth Breast MCF-7” value in the assay on MCF-7 (Conc. 100 μM) is 4%.
